# US8772029B2, “Modulation of oocyte meiotic progression and oocyte activation” (Northwestern University, priority 2011, dated 2014)
# Tests used:
# Format in all cases: cell-based, mouse
# oocytes = assay: Spindle phenotype scoring after in vitro maturation (IVM) with TPEN, MI-MII transition
# Method: (§1) For IVM studies, immature female CD1 mice (17 to 21 day old) were injected with 5IU equine chorionic gonadotropin (eCG) (Calbiochem, La Jolla, CA) in 100 μL sterile phosphate-buffered saline (PBS), intraperitoneally. After 44 to 48 hours, mice were anesthetized using isoflurane and euthanized by cervical dislocation. Dissected ovaries were placed in Leibovitz L-15 medium containing 1% FBS (L-15/FBS) and 0.2mM 3-isobutyl-1-methylxanthine (IBMX), and large antral follicles were punctured using 28 gauge needles to release cumulus oocyte complexes (COCs). COCs were washed through several drops of culture medium consisting of Minimum Essential Medium (MEM)-alpha with GLUTAMAX supplemented with 10% FBS, 1.5IU/mL human chorionic gonadotropin (hCG), and 5ng/mL epidermal growth factor and placed in culture medium with or without 10 μM N,N,N′,N′-tetrakis(2-pyridylmethyl) ethylenediamine (TPEN). In some experiments Z-Leu-Leu-Leu-al (MG132) was added to culture medium at 20 μM. COCs were cultured in drops of pre-equilibrated medium covered with embryo quality mineral oil at 37° C. in 5% CO2 with a humid environment. Ovulated MII eggs were collected from 4 to 6 week old mice primed with 5IU PMSG followed 48 h later by 5IU hCG. Oviducts were dissected into L-15/FBS, and eggs were removed and treated with 0.03% (w/v) hyaluronidase to remove cumulus cells. Eggs were washed and cultured in potassium simplex optimized medium (KSOM) (Millipore, Billerica, MA) covered with embryo quality mineral oil at 37° C. in 5% CO2.
# Oocytes were denuded of cumulus cells and fixed in a microtubule stabilizing buffer (Ibanez et al., 2005) containing 2% formaldehyde and 1% Triton X-100 for 30 min at 37° C. Oocytes were washed and blocked in PBS containing 0.1M glycine, 3mg/mL BSA, 0.01% Tween 20, and 0.01% sodium azide for at least 1 h and were stored in blocking solution at 4° C. for up to 2 weeks. Oocytes were incubated with anti-tubulin antibody (1:100) for 1 h at 37C. followed by three washes in blocking solution. They were then incubated for 1 h in AlexaFluor-488 conjugated anti-mouse secondary antibody (5μg/mL) and rhodamine-phalloidin (2U/mL), washed three additional times, and mounted in VECTASHIELD with DAPI. Microscopy was performed using a Leica SP5 inverted laser-scanning confocal microscope with a 63x oil immersion objective (Leica Microsystems, Heidelberg, Germany). Images were processed using LAS AF software (Leica Microsystems). […]
# Oocytes treated with TPEN during the MI-MII transition fail to enter MII. Following IVM under the conditions listed in control (C) or TPEN-containing (T) medium, oocytes were stained and imaged, and their spindle phenotypes were scored.
# [1] = test system: zinc-insufficient oocytes; assay: Spindle phenotype scoring after IVM in TPEN with proteasome inhibitor MG132 added after 10 h; details: TPEN 16 h without MG132; n=13
# Method: as §1
# Oocytes were denuded of cumulus cells and fixed in a microtubule stabilizing buffer (Ibanez et al., 2005) containing 2% formaldehyde and 1% Triton X-100 for 30 min at 37° C. Oocytes were washed and blocked in PBS containing 0.1M glycine, 3mg/mL BSA, 0.01% Tween 20, and 0.01% sodium azide for at least 1 h and were stored in blocking solution at 4° C. for up to 2 weeks. Oocytes were incubated with anti-tubulin antibody (1:100) for 1 h at 37C. followed by three washes in blocking solution. They were then incubated for 1 h in AlexaFluor-488 conjugated anti-mouse secondary antibody (5μg/mL) and rhodamine-phalloidin (2U/mL), washed three additional times, and mounted in VECTASHIELD with DAPI. Microscopy was performed using a Leica SP5 inverted laser-scanning confocal microscope with a 63x oil immersion objective (Leica Microsystems, Heidelberg, Germany). Images were processed using LAS AF software (Leica Microsystems).
# It has been previously shown that zinc-insufficient oocytes fail to increase MPF activity following the first meiotic division and have low CCNB1 protein levels (Bernhardt et al., 2010). In order to determine whether this decrease in CCNB1 is the major cause of the observed meiotic arrest phenotype, it was tested whether increasing CCNB1 would be sufficient to rescue MII entry in zinc-insufficient oocytes by inhibiting the proteasome at the end of the MI-MII transition, thereby halting CCNB1 degradation. Experimental oocytes were cultured for 10 hours in TPEN-containing medium and were then transferred into medium containing TPEN as well as the proteasome inhibitor Z-Leu-Leu-Leu-al (MG132) at 20 μM concentration. MG132 was added after first polar body extrusion, because earlier addition would result in MI arrest due to failure to degrade APC/C targets that prevent cell division. Oocytes were cultured for an additional 6 h in the presence of MG132 to allow time for CCNB1 reaccumulation, for a total 16 h IVM culture period. Proteasome inhibition led to a partial rescue of the zinc insufficiency phenotype. 69% of treated oocytes formed spindle-like structures, and none were in telophase I arrest, despite being cultured in the presence of TPEN for the entire culture period (FIG. 2, A; Table 2).
# A majority of zinc-insufficient oocytes treated with MG132 following the first meiotic division transition progress beyond telophase-I arrest and form MII spindle-like structures. […]
# CCNB1 = assay: Western blot for CCNB1 in oocytes; details: oocytes cultured with 10 μM TPEN during the MI-MII transition
# Method: Western blotting was performed essentially as previously described (Bernhardt et al., 2010). Briefly, 15 to 50 cumulus-denuded oocytes were transferred in a minimal amount of medium to microcentrifuge tubes and immediately lysed in 8 μL of 1x SDSPAGE Sample Buffer (Laemmli, 1970). SDS-PAGE gels were run using the Invitrogen NuPAGE system and transferred to Immobilon-P PVDF membranes (Millipore, Billerica, MA). Blocking and antibody incubations were in 2% w/v ECL Advanced Blocking Reagent (Amersham) in TBS-T (20mM Tris, pH7.4, 137mM NaC1, 0.1% Tween20 v/v). Anti-CCNB1antibody was diluted 1:500, anti-FBXO43 was used at 1:1000 dilution, and anti-tubulin antibody was used at 1:10,000. HRP-conjugated secondary antibodies were diluted 1:10,000. Detection was performed using Amersham ECL Advanced detection reagent. BIOMAX MR films (Kodak, Rochester, NY) were exposed and developed, or an Alpha-Innotech (San Learndo, CA) MultiImage II system was used.
# [2] = COCs in control medium 7.5 h, then 10 μM TPEN 6.5 h, n=42
# [3] = COCs in control medium 7.5 h, then 10 μM TPEN 6.5 h, n=42, listed as T
smiles,measurement,setting,value
"c1ccc(CN(CCN(Cc2ccccn2)Cc2ccccn2)Cc2ccccn2)nc1 [TPEN, N,N,N′,N′-tetrakis(2-pyridylmethyl)ethylenediamine]",TPEN-like (telophase-I arrest-like) spindle phenotype,oocytes; [2],31%
same,normal MII spindle,oocytes; [2],failed to form MII spindles and none
same,other (>2 chr. masses) spindle phenotype,oocytes; [2],19%
same,partial TPEN-like (chromatin mass) spindle phenotype,oocytes; [2],54%
same,TPEN-like (telophase-I arrest-like) spindle phenotype,oocytes; [3],31%
same,normal MII spindle,oocytes; [3],0%
same,partial TPEN-like (chromatin mass) spindle phenotype,oocytes; [3],54%
same,TPEN-like (telophase-I arrest-like) spindle phenotype,"oocytes; TPEN 14 h IVM, n=34",91%
same,normal MII spindle,"oocytes; TPEN 14 h IVM, n=34",0%
same,other (>2 chr. masses) spindle phenotype,"oocytes; TPEN 14 h IVM, n=34",6%
same,partial TPEN-like (chromatin mass) spindle phenotype,"oocytes; TPEN 14 h IVM, n=34",3%
same,MII (aligned metaphase plate),[1],0%
same,other spindle phenotype,[1],23%
same,persisting midbody or chromatin mass,[1],0%
same,spindle with chr. scattered along length,[1],0%
same,spindle with ≦3 chr. out of place,[1],0%
same,CCNB1 protein levels,CCNB1,low
